Measured values published in US20250127787A1, “METHODS FOR TREATING PERIPHERAL NEUROPATHY” (University of Pittsburgh - Of the Commonwealth System of …, priority 2021, published 2025).
Entries after “also recorded” stand apart in the source; their conditions may differ.

Legend:
Mst3b = Mst3b expression in CYP-CIPN rat epidermis, Western immunoblotting; format: in vivo; conditions: 8-AG 5 mg/kg/day in drinking water
Description: Animals. This study employed female Harlan Sprague Dawley (HSD) rats (3-4 mo; Envigo, Indianapolis, IN) and were divided into the following groups: 1) Control, 2) Cyclophosphamide (CYP, 75 mg/kg i.p. in saline vehicle; administered on days 0, 3 and 6); 3) 8-aminoguanine (8-AG; 5 mg/kg/day in drinking water; beginning 2 weeks prior to CYP and continuing until sacrifice (day 8)). The dose of 8-AG is based on our preliminary and published experiments. […] The investigation conforms to the Guide for the Care and Use of Laboratory Animals published by the US National Institutes of Health (NIH Publication No. 85-23, revised 1996). […]
Western immunoblotting: Following the testing paradigms, rats were deeply anesthetized and tissues (e.g., epidermis, peripheral sciatic nerves, spinal cord segments (L3-L5) and dorsal root ganglia (L3-L5) were removed, and a portion of each preparation was homogenized using Lysing Matrix D in a FASTPREP® 24 instrument (MP Biomedicals, Solon, OH) in HBSS [5 mM KCl, 0.3 mM KH2PO4, 138 mM NaCl, 4 mM NaHO3, 0.3 mM Na2HCO3, 0.3 mM Na2HPO4, 5.6 mM glucose and 10 mM Hepes, pH 7.4 containing complete protease inhibitor cocktail (1 tablet/10 ml, Roche, Indianapolis, IN)] and phosphatase inhibitor cocktail (Sigma, 1:100). […] The protein concentrations of the supernatants were determined using the Pierce BCA protein assay (Thermo Scientific, Rockford, IL). […]

[1] = system: isolated mitochondria from spinal cord (L3-L5) homogenates; test: Mitochondrial respiration (respiratory control ratio) in CYP-CIPN rat spinal cord; format: in vivo; conditions: oral 8-AG
Description: Animals. This study employed female Harlan Sprague Dawley (HSD) rats (3-4 mo; Envigo, Indianapolis, IN) and were divided into the following groups: 1) Control, 2) Cyclophosphamide (CYP, 75 mg/kg i.p. in saline vehicle; administered on days 0, 3 and 6); 3) 8-aminoguanine (8-AG; 5 mg/kg/day in drinking water; beginning 2 weeks prior to CYP and continuing until sacrifice (day 8)). The dose of 8-AG is based on our preliminary and published experiments. […] The investigation conforms to the Guide for the Care and Use of Laboratory Animals published by the US National Institutes of Health (NIH Publication No. 85-23, revised 1996). In addition, all tissues (dorsal root ganglion, spinal cord, peripheral nerves and hindpaw epidermis) were removed from isoflurane anesthetized rats and the tissue was used for various experimental approaches as described below. At the end of tissue removal, animals were sacrificed by thoracotomy.
Mitochondrial Respiration. Homogenates (peripheral nerve and/or spinal cord) were used to measure mitochondrial respiration. Mitochondria were isolated as described earlier with modifications. […] The respiratory control ratio (RCR), a measure of the “tightness of coupling” between electron transport and oxidative phosphorylation, was determined from ratio of state 3 to state 4 rates of respiration. […]

## Nc1nc2[nH]c(N)nc2c(=O)[nH]1 [8-AG, 8-Aminoguanine]
Mst3b
  effect on CYP-induced decrease in Mst3b expression: completely restored; also recorded: completely prevented; also recorded: effective in restoring
[1]
  effect on CYP-induced decrease in respiratory control ratio (RCR): reversed to values similar to Control; also recorded: prevented
